The record followed here is ChEMBL document CHEMBL1143963, “2D QSAR and similarity studies on cruzain inhibitors aimed at improving selectivity over cathepsin L” (Bioorg Med Chem, 2008).

The target of this test is Cruzipain (Trypanosoma cruzi, UniProt P25779). Put plainly: Inhibition of Trypanosoma cruzi cruzain.

A value given as a limit tells only on which side of the number the result lay.

Cruzipain, sequence (P25779 whole entry): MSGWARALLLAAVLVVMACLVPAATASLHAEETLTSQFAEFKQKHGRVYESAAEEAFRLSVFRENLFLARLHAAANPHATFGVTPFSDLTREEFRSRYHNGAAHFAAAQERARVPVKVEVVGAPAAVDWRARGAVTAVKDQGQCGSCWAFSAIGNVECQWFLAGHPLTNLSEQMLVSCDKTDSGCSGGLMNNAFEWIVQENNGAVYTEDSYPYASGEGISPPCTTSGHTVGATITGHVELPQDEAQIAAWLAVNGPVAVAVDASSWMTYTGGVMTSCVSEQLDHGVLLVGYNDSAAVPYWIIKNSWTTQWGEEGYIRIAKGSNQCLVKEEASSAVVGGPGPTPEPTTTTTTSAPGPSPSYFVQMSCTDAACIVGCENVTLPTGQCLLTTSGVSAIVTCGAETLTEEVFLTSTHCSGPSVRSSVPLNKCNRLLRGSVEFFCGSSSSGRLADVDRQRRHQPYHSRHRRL

As for `O=C(O)C[C@H](CCc1ccccc1)NC(=O)[C@H](Cc1ccccc1)NC(=O)OCc1ccccc1`, the Ki (commonly a dissociation constant, usually derived from enzyme kinetics or from competition with a known ligand) is > 10000 nM.

Take `O=C(N[C@@H](Cc1ccccc1)C(=O)N[C@H](CCO)CCc1ccccc1)OCc1ccccc1`: the Ki was > 10000 nM.

Consider `O=C(N[C@@H](Cc1ccccc1)C(=O)N[C@H](CCS)CCc1ccccc1)OCc1ccccc1`, for which the Ki was > 5010 nM.

The molecule `O=C(N[C@@H](Cc1ccccc1)C(=O)N[C@@H](Cc1ccccc1)C(=O)CO)OCc1ccccc1` showed a Ki of 145 nM.

As for `O=C(N[C@@H](Cc1ccccc1)C(=O)N[C@@H](Cc1ccccc1)C(=O)CS)OCc1ccccc1`, the affinity, expressed as Ki, was 4.37 nM.
